Test results: patent publication US10722496B2, “2-iminobiotin for use in the treatment of brain cell injury” (Neurophyxia B.V., priority 2015, dated 2020)

Columns and labels:
IMR-32 cells = assay: Hydrogen peroxide in culture medium; format: cell-based, human; conditions: 30 ng/ml 2-IB, data not shown
IMR-32 cell cultures = assay: ROS fluorometric assay after hypoxia under mild hypothermia; format: cell-based, human
Description: In-vitro hypoxia was induced for 7 hours using IMR-32 cell cultures. After the hypoxic insult, cultures were subjected to 25 hours of mild hypothermia (33.5° C.) and were incubated with or without 2-IB (10, 30, 50, 100 and 300 ng/ml). Cell morphology was evaluated by brightfield microscopy and cell damage was analyzed by LDH assays. Production of reactive oxygen species (ROS) was measured using fluorometric assays. Western blotting for PARP and phosphorylated as well as unphosphorylated akt and erkl/2 was performed.

[1] = tested on: cell stress associated proteins; assay: Cell stress proteome profiler array; format: cell-based, human; conditions: for ADAMTS1 mean densitometric intensity / Bcl-2 mean densitometric intensity / CA IX mean densitometric intensity / COX-2 mean densitometric intensity / Cited 2 mean densitometric intensity / Cytochrome C mean densitometric intensity / Dkk-4 mean densitometric intensity / FABP-1 mean densitometric intensity / HIF1a mean densitometric intensity / HIF2a mean densitometric intensity / HSP60 mean densitometric intensity / HSP70 mean densitometric intensity / IDO mean densitometric intensity / NFkB1 mean densitometric intensity / PON1 mean densitometric intensity / PON2 mean densitometric intensity / PON3 mean densitometric intensity / PP53 mean densitometric intensity / SIRT2 mean densitometric intensity / SOD2 mean densitometric intensity / Thioredoxin-1 mean densitometric intensity / p21/CIP1 mean densitometric intensity / p27 mean densitometric intensity / pHSP-27 mean densitometric intensity / pJNK mean densitometric intensity / pp38a mean densitometric intensity: 2-IB (30 ng/ml)
Description: (§1) In vitro hypoxia was induced in the cell cultures by using our recently described system with minor modifications (Huang et al., 2013b; Weber et al., 2015; Zitta et al., 2010). Enzyme stock solutions (100×) of catalase and glucose oxidase (both from Sigma-Aldrich) were prepared in cell culture medium (DMEM/F12, 1% FCS; final concentration: 120 U/ml and 2 U/ml respectively; Sigma-Aldrich) leading to a decrease of partial pressure of oxygen (pO2) below 10 mmHg within 5 minutes. Hypoxic conditions were confirmed by using a tissue oxygen pressure monitor (LICOX® CMP Oxygen Catheter; Integra, Plainsboro, USA). After 7 hours of hypoxia, the cells were washed twice with PBS (PAA) and fresh normoxic medium supplemented with solvent (citrate buffer 1%) or 2-IB (10, 30, 50, 100 and 300 ng/mL) was added to the cells. Investigations of cell damage, metabolic activity, ROS, hydrogen peroxide, nitrite/nitrate production, erkl/2, akt and stat5 phosphorylation as well as cell stress protein expression were performed with cell culture media or cell protein (FIG. 1).
Proteome profiling was performed using commercially available cell stress proteome profiler arrays (R&D Systems, Minneapolis, USA) and the manufacturer's protocol provided with the assay kit. Equal amounts (50 μg) of protein from each experiment (N=4) were pooled and applied to the respective array membrane. Expression levels of 26 cell stress associated proteins were evaluated by densitometric analyses of the arrays using the ImageJ 1.410 software (ImageJ, NIH, USA).

iNOS and nNOS = conditions: Tataranno et al., 2015; cited from earlier work
erkl/2 = assay: Western blotting, erkl/2 phosphorylation; format: cell-based, human; conditions: 30 ng/ml 2-IB
Description: as §1, with “Investigations of cell damage, metabolic activity, ROS, hydrogen peroxide, nitrite/nitrate production, erkl/2, akt and stat5 phosphorylation as well as cell stress protein expression were performed with cell culture media or cell protein (FIG. 1).” left out
Protein extraction was performed using RIPA buffer containing 150 mM sodium chloride, 1% NP-40, 1% sodium deoxycholate, 0.1% sodium dodecyl sulfate (SDS) and 50 mM Tris-HCl buffer (pH 7.6; all from Sigma-Aldrich) or alternatively M-PER buffer (Mammalian Protein Extraction Reagent; Pierce, Ill., USA). Protein concentrations were determined with Roti®-Quant assays (Carl Roth) and samples were stored at −20° C. until use. […] Images were taken and densitometrically analyzed with the software ImageJ (v1.41o, NIH).

[2] = 30 ng/ml 2-IB after the hypoxic insult, of 26 proteins

N=C1N[C@H]2[C@H](CS[C@H]2CCCCC(=O)O)N1 [2-IB, 2-iminobiotin]
hypoxia-induced release of hydrogen peroxide (IMR-32 cells): did not attenuate the hypoxia-induced release of hydrogen peroxide | hypoxia-induced ROS production (IMR-32 cell cultures; 30 ng/ml 2-IB post-hypoxic, mild hypothermia (33.5° C.)): attenuated the hypoxia-induced ROS production under hypothermic conditions | hypoxia-induced ROS generation (IMR-32 cell cultures; higher concentrations of 2-IB (above 30 ng/ml), mild hypothermia): less effective in reducing hypoxia-induced ROS generation | cell stress associated proteins down regulated after hypoxia [1, 2]: 3/26 | cell stress associated proteins unchanged after hypoxia [1, 2]: 4/26 | cell stress associated proteins up regulated after hypoxia [1, 2]: 19/26 | investigated stress proteins up regulated ([1]; 30 ng/ml 2-IB for 4 hours post hypoxia): 73% | ADAMTS1 mean densitometric intensity ([1]; Hypoxia): 9.23 | Bcl-2 mean densitometric intensity ([1]; Hypoxia): 42.62 | CA IX mean densitometric intensity ([1]; Hypoxia): 23.02 | COX-2 mean densitometric intensity ([1]; Hypoxia): 13.79 | Cited 2 mean densitometric intensity ([1]; Hypoxia): 67.91 | Cytochrome C mean densitometric intensity ([1]; Hypoxia): 108.04 | Dkk-4 mean densitometric intensity ([1]; Hypoxia): 3.47 | FABP-1 mean densitometric intensity ([1]; Hypoxia): 9.02 | HIF1a mean densitometric intensity ([1]; Hypoxia): 47.93 | HIF2a mean densitometric intensity ([1]; Hypoxia): 0.00 | HSP60 mean densitometric intensity ([1]; Hypoxia): 150.57 | HSP70 mean densitometric intensity ([1]; Hypoxia): 170.82 | IDO mean densitometric intensity ([1]; Hypoxia): 0.00 | NFkB1 mean densitometric intensity ([1]; Hypoxia): 8.63 | PON1 mean densitometric intensity ([1]; Hypoxia): 0.00 | PON2 mean densitometric intensity ([1]; Hypoxia): 20.16 | PON3 mean densitometric intensity ([1]; Hypoxia): 0.00 | PP53 mean densitometric intensity ([1]; Hypoxia): 11.92 | SIRT2 mean densitometric intensity ([1]; Hypoxia): 171.53 | SOD2 mean densitometric intensity ([1]; Hypoxia): 203.11 | Thioredoxin-1 mean densitometric intensity ([1]; Hypoxia): 147.57 | p21/CIP1 mean densitometric intensity ([1]; Hypoxia): 51.41 | p27 mean densitometric intensity ([1]; Hypoxia): 4.67 | pHSP-27 mean densitometric intensity ([1]; Hypoxia): 1.65 | pJNK mean densitometric intensity ([1]; Hypoxia): 48.63 | pp38a mean densitometric intensity ([1]; Hypoxia): 3.52 | ADAMTS1 mean densitometric intensity ([1]; Normoxia): 10.32 | Bcl-2 mean densitometric intensity ([1]; Normoxia): 32.27 | CA IX mean densitometric intensity ([1]; Normoxia): 0.00 | COX-2 mean densitometric intensity ([1]; Normoxia): 8.91 | Cited 2 mean densitometric intensity ([1]; Normoxia): 44.07 | Cytochrome C mean densitometric intensity ([1]; Normoxia): 84.87 | Dkk-4 mean densitometric intensity ([1]; Normoxia): 2.81 | FABP-1 mean densitometric intensity ([1]; Normoxia): 6.67 | HIF1a mean densitometric intensity ([1]; Normoxia): 62.15 | HIF2a mean densitometric intensity ([1]; Normoxia): 0.00 | HSP60 mean densitometric intensity ([1]; Normoxia): 121.73 | HSP70 mean densitometric intensity ([1]; Normoxia): 139.78 | IDO mean densitometric intensity ([1]; Normoxia): 0.00 | NFkB1 mean densitometric intensity ([1]; Normoxia): 6.09 | PON1 mean densitometric intensity ([1]; Normoxia): 0.00 | PON2 mean densitometric intensity ([1]; Normoxia): 8.83 | PON3 mean densitometric intensity ([1]; Normoxia): 0.00 | PP53 mean densitometric intensity ([1]; Normoxia): 8.64 | SIRT2 mean densitometric intensity ([1]; Normoxia): 148.80 | SOD2 mean densitometric intensity ([1]; Normoxia): 181.53 | Thioredoxin-1 mean densitometric intensity ([1]; Normoxia): 126.34 | p21/CIP1 mean densitometric intensity ([1]; Normoxia): 43.13 | p27 mean densitometric intensity ([1]; Normoxia): 4.51 | pHSP-27 mean densitometric intensity ([1]; Normoxia): 0.79 | pJNK mean densitometric intensity ([1]; Normoxia): 39.24 | pp38a mean densitometric intensity ([1]; Normoxia): 4.72 | inhibition of NO biosynthesis (iNOS and nNOS): reversible inhibitor of NO biosynthesis, blocking mainly iNOS and nNOS activity | phosphorylation of erkl/2 (erkl/2): did not influence
